Converted amounts (≈) assume the structure as drawn. Where two headings read alike, the source gives them in different places.
How the values were obtained:
Format in all cases: cell-based
Plasmodium falciparum K1 = assay: Chloroquine resistant-Plasmodium falciparum growth inhibition screening test; conditions: for Selective toxicity: EC50 against rat L6 cells / EC50 against P. falciparum K1; for EC50: Plasmodium falciparum, Table 2, unit inferred, chloroquine-resistant K1 strain, read-out: P. falciparum K1
Protocol: In the present experiment, protozoa of plasmodium falsiparum K1 strain was used. RPMI-1640 medium sterilized with a filter to which human serum was added to be 5%, was used in the experiment. Malarial parasites were cultured under 3% O2 concentration, 4% CO2 concentration, 93% N2 concentration, and at a temperature of 37° C.
The compounds of the present invention to be used in the present test and the positive control drug (chloroquine) were dissolved in DMSO to make a test solution of a predetermined concentration. Cultured malaria parasite infected-erythrocytes were collected by centrifugation, and diluted with non-infected erythrocyte so that the early infection rate was 0.15%. Hematocrit level at that time was 2.5%.
200 μL of malaria infected solution was added to wells of a 96-well culture plate, and adjusted by adding a test solution containing drug of a predetermined concentration or a drug-free DMSO. Test solutions were taken by duplicates.
[…] […] Radiation intensity was measured with a beta plate liquid scintillation counter (Wallac), and malarial parasite infection rates of the test solution added group and the control group were calculated.
Growth inhibition rate (%)={1−(b−a)/(c−a)}×100 • a: early infection rate • b: infection rate when test solution was added • c: infection rate of the control 3. Growth Inhibition Test of Rat L6 Cells
Antimalarial activity of a sample was estimated from EC50 values of the sample against chloroquine resistant-Plasmodium falciparum and rat L6 cells. […] It means that the larger the value of the selection toxity, the less the risk of the side effect is. Chemotherapy index=(EC50 value of a sample against rat L6 cells)/(EC50 value of a sample against chloroquine resistant-Plasmodium falsiparum)

[1] = tested on: Trypanosoma brucei rhodesiense (STIB 900 strain); assay: African trypanosome protozoa growth inhibition screening test
Protocol: In the present experiment, protozoa of Tripanosoma brucei rhodensiense (STIB 900 Strain), a trypomastigote living in blood stream, was used. The medium used in the experiment was a MEM medium which was sterilized with a filter and supplemented with 25 mM N-2-hydroxyeihylpiperazine-2-ethansulfonic acid (HEPES), 1 g/L glucose, 1% MEM non-essential amino acid, 0.2 mM 2-mercaptoethanol, 2 mM sodium pyruvate, 0.1 mM hypoxanthine, and 15% heat-treated horse serum. The protozoa was cultured in an atmosphere of CO2 concentration 5%, at a temperature of 37° C.
The compounds of the present invention to be used in the present test and the positive control drug (melarsoprol) were dissolved in dimethylsulfoxide (DMSO) to make a test solution of a predetermined concentration.
A medium containing 8×10^3 protozoa, and a test solution containing a drug of a predetermined concentration of a drug-free DMSO were added to wells of a 96-well culture plate, and subsequently, medium was added so that the amount in each well becomes 100 μL. Test solutions were taken by duplicates.
(§1) After culturing the culture plate for 72 hours in an incubator, growth inhibition activity was tested. Test was conducted as follows. 10 μL of Alamar Blue aqueous solution was added to each well, and the resultant was further cultured for 2 hours. Next, the culture plate was placed on a fluorescent micro-plate reader (Spectramax Gemeni XS; US Molecular Device), radiated at an excited wavelength of 536 nm. Fluorescent intensity was measured at 588 nm, to calculate the trypanosome protozoa infected rate of the test solution added-group, and of the control group.
(§2) Growth inhibition rate (%)={1−(b−a)/(c−a)}×100 • a: early infection rate • b: infection rate when test solution was added • c: infection rate of the control

[2] = tested on: Leishmania donovani (MHOM/ET/67/L82 strain); assay: Leishmania protozoa growth inhibition screening test
Protocol: In the present experiment, Leishmania donovani (MHOM/ET/67/L82 strain) was used. Protozoa was subcultured in Syrian Golden hamster, from which an amastigote was obtained. In the experiment, SM medium supplemented with 10% heat-treated bovine fetal serum was used, which was adjusted to pH 5.4, and cultured in an atmosphere of 5% CO2 concentration, at 37° C.
The compounds of the present invention to be used in the present test and the positive control drug (miltefosine) were dissolved in DMSO to make a test solution of a predetermined concentration.
After adding a medium containing a predetermined number of protozoa to wells of a 96-well culture'plate and pre-treating, concentration of the amastigote was measured with CASY cell analysis system (Scharfe, Germany). Then, test solution containing a drug of a predetermined concentration or a drug-free DMSO was added. Test solutions were taken by duplicates.
as §1, with “and infection rate of leishmania” for “to calculate the trypanosome”, “protozoa” for “protozoa infected rate”, “added group” for “added-group,”, “and” for “and of the”, “was calculated.” for “group.”
as §2

[3] = Table 6, unit inferred, read-out: Trypanosoma brucei rhod.
[4] = Table 6, unit inferred, read-out: Leishmania donovani

CCN(CC)c1ccc2nc3c4ccccc4c(=Nc4ccc5ccccc5n4)cc-3oc2c1 [Compound 1H, N,N-Diethyl-5-(quinolin-2-ylimino)-5H-benzo[a]phenoxazin-9-amine]
Selective toxicity (Plasmodium falciparum K1): 2513 | EC50 ([1]; Table 5, 72 hours, Alamar Blue, read-out: 50% Growth inhibition concentration Trypanosoma brucei rhod.): 4.6 µg/mL (≈ 10.3 µM) | EC50 ([2]; Leishmania donovani, Table 5, amastigotes, 72 hours, Alamar Blue, read-out: 50% Growth inhibition concentration Leishmania donovani): 1.25 µg/mL (≈ 2.81 µM)

CCN(CCNS(C)(=O)=O)c1cc(C)c2nc3c4ccccc4c(=Nc4ccncc4)cc-3oc2c1 [Compound 1R, N-Ethyl-N-(2-methansulfonamidylethyl)-11-methyl-5-(pyridine-4-ylimino)-5H-benzo[a]phenoxazin-9-amine]
Selective toxicity (Plasmodium falciparum K1): 885 | EC50 (Plasmodium falciparum K1): 0.009 µg/mL (≈ 0.0179 µM) | EC50 [1, 3]: 5.34 µg/mL (≈ 10.7 µM) | EC50 [2, 4]: 3.92 µg/mL (≈ 7.81 µM)

CCN(CCNS(C)(=O)=O)c1cc(C)c2nc3c4ccccc4c(=Nc4ccccn4)cc-3oc2c1 [Compound 1S, N-Ethyl-N-(2-methansulfonamidylethyl)-11-methyl-5-(pyridine-2-ylimino)-5H-benzo[a]phenoxazin-9-amine]
Selective toxicity (Plasmodium falciparum K1): 43 | EC50 (Plasmodium falciparum K1): 0.007 µg/mL (≈ 0.014 µM) | EC50 [1, 3]: 0.714 µg/mL (≈ 1.42 µM) | EC50 [2, 4]: 2.09 µg/mL (≈ 4.17 µM)

— patent US8288374B2, “Medicinal composition containing benzo[a]phenoxazine compound as the active ingredient for prevention or treatment of protozoal disease” (Hoshi University, priority 2008, dated 2012)
